Assay results from US20030073662A1, “Regulation of cellular functions by ectopic expression of non-endogenous cell signalling receptors” (priority 1995, published 2003).
Where two headings read alike, the source gives them in different places. Positions of bridges follow the written chain, without caps; N, C: chain ends. No end group written: not given here.

Columns and labels:
[1] = test system: mouse TRH-R / phosphoinositide pathway in primary hepatocytes; assay: Stimulation of inositol phosphate formation in hepatocytes from rats after in vivo transfer of the TRH-R cDNA; format: cell-based, rat
Description: (§1) Primary hepatocytes were exposed to the vectors AdCMV.βgal or AdCMV.mTRH-R. After 24 hr, the cells were labeled for 24 hr with myo-[^3H]inositol (myo-[2-^3H]inositol; 20 Ci/mmol, Amersham Corporation, Arlington Heights, Ill.), incubated (5 min, 37° C.) with 10 mM LiCl, stimulated (60 min, 37° C.) with methyl-TRH. The cells were then lysed, the inositol phosphates were separated by anion-exchange chromatography and the radioactivity counted. The fold stimulation of inositol phosphates formation was calculated as: (dpm in inositol phosphates ×100/dpm in lipids of stimulated cells) (dpm in inositol phosphates ×100/dpm in lipids of unstimulated cells) (35). For each dose of vector, triplicate measurements were made in hepatocytes from two different animals.
(§2) Sprague-Dawley rats (250-300 g, 3 months old, fed ad libitum) were anaesthetized with ketamine-HCl (60 mg/kg) and xylazine (5 mg/kg). The Ad vectors [AdCMV.mTRH-R, AdCMV.βgal, AdCMV.Null (the “Null” vector is similar to the other vectors except that the expression cassette contains the CMV promoter but no recombinant gene) (31)] were administered via the right external jugular vein (5×10^9 pfu, 100 μl 0.9% NaCl). The livers were recovered 5 days later.
Measurement of inositol phosphates formation was identical to that described for FIG. 3. Triplicate measurements were made from three individual animals per condition.

[2] = test system: Sprague-Dawley rats; assay: Modulation of serum glucose in rats after in vivo transfer of the TRH-R cDNA to the liver; design: species or system rat
Description: as §2
The vectors AdCMV.mTRH-R or AdCMV.Null (5×10^9 pfu), or saline (0.9%) as negative control (all in 100 μl) were administered to rats as described above. Five days later, the animals were anaesthetized by methoxyflurane (Pitman-Moore, Mundelein, Ill.) inhalation and the left and right external jugular veins were cannulated. After 15 min to permit stabilization, a 15 min baseline period was started, during which serum samples for glucose levels were obtained every 5 min. At “0 time” methyl-TRH (500 μg in 100 μl) or saline (0.9%, 100 μl ) was administered in one cannula and the serum samples obtained from the other cannula every 5 min for 55 min. Serum glucose levels were determined by colormetric assay (Sigma Diagnostics, St. Louis, Mo.).
The baseline glucose levels were determined for each animal as an average from −15 to 0 before administration of methyl-TRH or saline. The data are presented as the absolute change from the average baseline serum glucose level (mM) using each individual animal as its own control, and averaging the values at each time point for each group of animals. AdCMV.mTRH-R (IV)/TRH=vector administered intravenously at day 0, methyl-TRH administered at day 5, n=6 animals; AdCMV.mTRH-R(IP)/TRH=vector administered via the portal vein at day 0, methyl-TRH administered at day 5, n=5; AdCMV.Null(IV)/TRH=vector administered intravenously at day 0, methyl-TRH at day 5, n=6; saline/TRH=saline administered instead of vector at day 0, methyl-TRH at day 5, n=6; and naive/saline=nothing administered at day 0, saline at day 5, n=5. The data is presented as the mean for all animals in the group at each time point. The normal range for serum glucose Sprague-Dawley rats is 2.5 6.7 mM(36).
FIG. 9 illustrates the average change in serum glucose levels from baseline. The average change in serum glucose levels from baseline was determined for each time point from 15 to 55 min after administration of methyl-TRH or saline on day 5. The data are presented as mean±standard deviation. All statistical comparisons were made using the two-tailed Student's t-test.

[3] = test system: mouse TRH-R / phosphoinositide pathway in primary hepatocytes; assay: Stimulation of inositol phosphate formation in hepatocytes after in vitro transfer of the TRH-R cDNA; format: cell-based, rat
Excerpt: The replication-deficient recombinant adenovirus vectors are all E1a^−, partial E1b^−, partial E3^− based on adenovirus type 5, in which an expression cassette containing a promoter, driving the expression of a recombinant gene, is inserted at the site of the El deletion. AdCMV.mTRH-R contains an expression cassette with the cytomegalovirus early intermediate promoter/enhancer (CMV) followed by the mouse thyrotropin releasing hormone receptor (TRH-R) cDNA (30). AdCMV.βgal carries the CMV promoter and the E.coli LacZ gene [encoding β-galactosidase (βgal)] (31). The adenovirus vectors were prepared, purified, and titered as previously described (32,33). […]
as §1, with “For each dose of vector, triplicate measurements were made in hepatocytes from two different animals.” left out

[4] = biological target: T1, mouse thyrotropin releasing hormone receptor (TRH-R) (Mus musculus, UniProt P21761); format: binding
T1 construct: containing the protein-coding region of the mouse TRH-R cDNA, nucleotides 233-1462 of plasmid pBSmTRHR; expressed in transfected cells; host or cells: Primary Sprague-Dawley rat hepatocytes transduced with adenovirus AdCMV.mTRH-R, either in vitro (moi 1-100) or in vivo (i.v., hepatocytes isolated 5 days later)
T1 sequence (P21761 whole entry): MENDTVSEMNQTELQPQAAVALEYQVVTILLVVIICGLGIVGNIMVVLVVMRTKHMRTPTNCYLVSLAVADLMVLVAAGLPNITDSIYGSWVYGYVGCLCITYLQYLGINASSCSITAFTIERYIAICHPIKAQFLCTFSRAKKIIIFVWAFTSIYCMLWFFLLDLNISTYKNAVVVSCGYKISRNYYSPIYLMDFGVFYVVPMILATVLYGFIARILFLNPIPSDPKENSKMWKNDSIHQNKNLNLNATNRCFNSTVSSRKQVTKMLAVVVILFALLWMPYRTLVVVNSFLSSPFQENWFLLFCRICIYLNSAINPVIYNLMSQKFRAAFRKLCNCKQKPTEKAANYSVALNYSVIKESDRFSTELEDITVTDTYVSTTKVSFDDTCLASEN
Description: (§3) FIG. 2 illustrates the binding of methylthyrotropin releasing hormone (methyl-TRH) to hepatocytes following adenovirus-mediated in vitro transfer of the TRH-R cDNA. […] Following incubation for 24 hr with the vectors AdCMV.βgal or AdCMV.mTRH-R, the hepatocytes (10^6/well) were incubated for 60 min with [^3H]methyl-TRH (82.5 Ci/mmol, New England Nuclear-Dupont, Boston, Mass.) or [^3H]methyl-TRH plus excess unlabeled methyl-TRH (Sigma, St. Louis, Mo.). Free ligand was removed by aspirating the medium and washing the cells 5 times with 2 ml (4° C.) Hanks balanced salt solution. Cell associated radioactivity was measured by dissolving the cells with 1 ml of 0.4 N NaOH and counting. Specific binding of the [^3H]methyl-TRH was calculated as: [(dpm of [^3H]methyl-TRH)-(dpM [^3 H]methyl-TRH in the presence of unlabeled methyl-TRH)] (34). For each dose of the vector, triplicate measurements were made in hepatocytes from two different animals. The number of TRH-R receptor sites was calculated assuming a one-to-one stoichiometry of ligand to receptor and a homogeneous distribution of TRH-Rs.

[5] = biological target: T1, mouse thyrotropin releasing hormone receptor (TRH-R); assay: [3H]methyl-TRH binding to primary hepatocytes from rats after in vivo adenovirus-mediated transfer of the TRH-R cDNA; design: species or system rat
Description: as §3, §2
FIGS. 4 and 5 are Northern analyses. Liver RNA (10 μg/lane) was evaluated with a mouse TRH-R cDNA probe (FIG. 4, lanes 1 and 2) or, as a positive control, […] cDNA (FIG. 5, lanes 3 and 4). The sizes of the transcripts are indicated. Lanes 1 and 3 (FIG. 4 and FIG. 5, respectively) are animals receiving AdCMV. βgal. […] The analysis of [^3H]methyl-TRH binding was identical to that described for FIG. 2. Triplicate measurements were made from three individual animals per condition.

[6] = hepatocytes uninfected or infected with control vector AdCMV.βgal
[7] = hepatocytes from AdCMV.mTRH-R infected animals, not shown
[8] = read-out: Kd of methyl-TRH binding

NC(=O)[C@@H]1CCCN1C(=O)[C@H](Cc1cnc[nH]1)NC(=O)[C@@H]1CCC(=O)N1 [TRH, thyrotropin-releasing hormone]
fold stimulation of inositol phosphate formation above controls of no added methyl-TRH ([1]; hepatocytes from animals infected 5 days previously with AdCMV.mTRH-R): 16.9±1.8 fold
stimulation of inositol phosphate formation ([1]; hepatocytes from uninfected animals and animals infected in vivo with AdCMV.βgal): no stimulation of inositol phosphate formation

Cn1cnc(C[C@H](NC(=O)[C@@H]2CCC(=O)N2)C(=O)N2CCC[C@H]2C(N)=O)c1 [methyl-TRH, methylthyrotropin releasing hormone]
increase in blood glucose over baseline from 15 to 55 min after administration ([2]; methyl-TRH 500 μg IV, rats given AdCMV.mTRH-R intravenously 5 days previously): 1.73 ± 0.26 mM
change in blood glucose over baseline ([2]; methyl-TRH IV, control rats given saline (similar with AdCMV.Null) 5 days previously): small increase in blood glucose
time of peak rise in blood glucose after administration ([2]; methyl-TRH IV, rats given AdCMV.mTRH-R intravenously 5 days previously): 15 min
time for which elevation in blood glucose was maintained ([2]; methyl-TRH IV, rats given AdCMV.mTRH-R intravenously 5 days previously, experiment terminated at 55 min): at least 55 min
rise in blood glucose compared with intravenous vector group ([2]; methyl-TRH IV, rats given AdCMV.mTRH-R via the portal vein 5 days previously): superimposable
inositol phosphates formation ([3]; hepatocytes infected in vitro with AdCMV.mTRH-R, dependent on vector dose): increased amounts of inositol phosphates
inositol phosphates formation [3, 6]: no increase in inositol phosphates
period of increase in formation of inositol phosphates after addition [1, 7]: at least 1 hr
internalization of ligand-receptor complex ([4]; hepatocytes infected with AdCMV.mTRH-R, not shown): internalized
specific binding of methyl-TRH [4, 6]: no specific binding
Kd [4, 8]: 3.18 ± 0.39 nM
internalization of methyl-TRH complex [5, 7]: underwent internalization
methyl-TRH specific binding ([5]; hepatocytes from animals receiving AdCMV.mTRH-R in vivo): high levels of methyl-TRH specific binding
methyl-TRH specific binding ([5]; hepatocytes from naive animals or animals receiving control vector AdCMV.βgal): no specific methyl-TRH binding
Kd [5, 8]: 2.51 ± 0.32 nM

[Arg^8]vasopressin (CYFQNCPRG-NH2; disulfide 1-6; ends not checked; UniProt P01185 20-28, looked up) [positive control for rise in blood glucose]
change in blood glucose ([2]; positive control, intravenous route, 55 min evaluation, not shown): an increase in blood glucose, followed by a decrease
